# Data: the supplement of paper PMC3974653
# Structures can show the parent of a compound that is named as a salt.
# Test system: MTT (mouse pheochromocytoma)
# Assay: IC50 of cell viability (ATP content)
# Settings: (24 or 48 h)
# Method in brief: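 CellTiter-Glo ATP luminescence, read after 15 minutes, was used to assess MTT mouse pheochromocytoma cells treated for 24 or 48 hrs with library compounds (final 0.5 nM to 46 µM, 8 concentrations). The cells had been plated at 5 µl of 200,000 cells/ml per well in white 1536-well plates in DMEM with 5% FBS and 1% horse serum and cultured overnight at 37°C, 5% CO2. Normalisation set positive-control wells to 100% and DMSO wells to 0%. The IC50 was then determined by four-parameter logistic fitting.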
row,SMILES,IC50 of cell viability
1,Cc1cc(O)c(C(=O)N[C@@H](C(=O)N[C@@H]2C(=O)N3C(C(=O)O)=C(CSc4nnnn4C)CS[C@H]23)c2ccc(O)cc2)cn1 [CEFPIRAMIDE SODIUM],> 46 µM
2,COC(=O)N/N=C/c1c[n+]([O-])c2ccccc2[n+]1[O-] [CARBADOX],> 46 µM
3,O=C1CC[C@@]2(O)C3Cc4ccc(O)c5c4C2(CCN3CC2CC2)[C@H]1O5 (stereo partly specified) [NALTREXONE],> 46 µM
4,CN1CCC[C@@H]1CCO[C@](C)(c1ccccc1)c1ccc(Cl)cc1 [Clemastine fumarate],> 46 µM
5,CCCc1c(OCCCCc2nnn[nH]2)ccc(C(C)=O)c1O,> 46 µM
6,CCCCOC(=O)c1ccc(O)cc1 [Butylparaben],> 46 µM
7,C[C@@]12CCC(=O)/C=C1/C=C\C3C2CC[C@]4(C)C3CC[C@@]45CCC(=O)O5 (stereo partly specified) [CANRENONE],> 46 µM
8,CNC(C)(C)Cc1ccccc1 [Mephentermine hemisulfate],> 46 µM
9,CN(C)c1nc(N(C)C)nc(N(C)C)n1 [Altretamine],> 46 µM
10,CC(C)(C)C(=O)C(Oc1ccc(Cl)cc1)n1ccnc1 (stereo unspecified) [Climbazole],> 46 µM
11,CC(C)(O)C1C2OC(=O)C1C1(O)CC3OC34C(=O)OC2C14C (stereo unspecified) [PICROTOXIN],> 46 µM
12,[H][C@](C)(O)[C@@]1([H])C(=O)[N@]2C(C([O-])=O)=C(SC3CN4C=NC=[N+]4C3)[C@@]([H])(C)C12[H] (stereo partly specified) [Biapenem],> 46 µM
13,CN1[C@@H]2CC[C@H]1C[C@@H](OC(c1ccccc1)c1ccccc1)C2 [Benzatropina],> 46 µM
14,C=C(C)C1CC=C(C)CC1 [D-LIMONENE],> 46 µM
15,COc1ccccc1O [2-Methoxyphenol],> 46 µM
16,CC(NNC(=O)c1ccccc1)c1ccccc1 (stereo unspecified) [Benmoxin],> 46 µM
17,CC(CCc1ccccc1)NC(C)C(O)c1ccc(O)cc1 (stereo unspecified) [NYLIDRIN],> 46 µM

row,SMILES,IC50 of cell viability
1,N[S+]([O-])(=O)C1=C(Cl)C=C2NC(N[S+]([O-])(=O)C2=C1)C3CC\4CC3\C=C4 (stereo unspecified) [CYCLOTHIAZIDE],> 46 µM
2,O=C(NO)c1ccccc1 [Benzhydroxamic acid],> 46 µM
3,"COc1ccc2c(c1OC)C(=O)O[C@H]2[C@@H]1c2cc3c(cc2CCN1C)OCO3 [(1S,9R)-beta-HYDRASTINE]",> 46 µM
4,S=C=Nc1ccc(N=C=S)cc1 [Bitoscanate],> 46 µM
5,Cc1ccc(-c2cc(C(F)(F)F)nn2-c2ccc([S+](N)(=O)[O-])cc2)cc1 [Celecoxib],> 46 µM
6,C=C1CC2C3C=C(C)C4=CC(=O)CCC4(C)C3CCC2(C)[C@@]1(OC(C)=O)C(C)=O (stereo partly specified),> 46 µM
7,Nc1ccc([S+](=O)([O-])NCc2ccccc2)cc1 [Benzylsulfamide],> 46 µM
8,CC1(C(=O)O)CCC2(C)CCC3(C)C(=CC(=O)C4C5(C)CCC(O)C(C)(C)C5CCC43C)C2C1 (stereo not drawn) [18ALPHA-GLYCYRRHETINIC ACID],> 46 µM
9,COC1C\C(C[N+](C)(C)C1)=C(/C2=CC=CS2)C3=CC=CS3 (stereo unspecified) [TIMEPIDIUM BROMIDE],> 46 µM
10,"CC1[C@H]2Cc3ccc(O)cc3[C@]1(C)CCN2C (single isomer, unassigned; (-)) [(-)-Metazocine]",> 46 µM
11,NC(CSCC(=O)O)C(=O)O (stereo unspecified) [CARBOCISTEINE],> 46 µM
12,COc1ccccc1OCCNCC(O)COc1cccc2[nH]c3ccccc3c12.O=C(O)C(O)C(O)C(=O)O (stereo unspecified) [CARVEDILOL TARTRATE],> 46 µM
13,C=CCC1(C(C)CCC)C(=O)NC(=O)NC1=O (stereo not drawn) [R-(+)-Secobarbital],> 46 µM
14,CN(C)CCN(Cc1ccc(Cl)cc1)c1ccccn1 [Chloropyramine hydrochloride],> 46 µM
15,CCCCCCCCCC(CC)c1ccc([S+](=O)([O-])O)cc1 (stereo unspecified) [4-Dodecylbenzenesulfonic acid],> 46 µM
16,CCCCCC(O)C1C(=O)OC(C)C(O)C=CC=CC=CC=CC=C(C)C(O)C(O)C(O)CC(O)CC(O)CC(O)CC(O)CC1O (stereo unspecified) [Fungichromin],> 46 µM

# Second part, the compound after the results:
row,IC50 of cell viability,SMILES
1,> 46 µM,CC\1=C(/CCN2CCC(CC2)C3=NOC4=C3C=CC(=C4)F)C(=O)[N@@]\5CCC[C@H](O)C5=N1 (racemic) [rac 9-Hydroxy Risperidone]
2,> 46 µM,COCCOC(=O)\C1=C(/C)N\C(=C(/C1C2=CC=CC(=C2)[N+]([O-])=O)C(=O)OC(C)C)C (stereo unspecified) [NIMODIPINE]
3,> 46 µM,COc1ccc([S+](=O)([O-])Nc2nnc(CC(C)C)s2)cc1 [GLYSOBUZOLUM]
4,> 46 µM,O=C([O-])c1ccccc1-c1c2cc(Br)c(=O)c(Br)c-2oc2c(Br)c([O-])c(Br)cc12 [EOSINE YELLOWISH]
5,> 46 µM,CC/C=C\C/C=C\C/C=C\C/C=C\C/C=C\CCCC(=O)O [EICOSAPENTAENOIC ACID]
6,> 46 µM,Cc1ccc(NC(=O)c2ccc(CN3CCN(C)CC3)cc2)cc1Nc1nccc(-c2cccnc2)n1 [IMATINIB MESYLATE]
7,> 46 µM,OCCOC[C@H]1O[C@H](OCCO)[C@H](OCCO)[C@@H](OCCO)[C@@H]1OCCO.OC[C@H]1O[C@H](O)[C@H](O)[C@@H](O)[C@@H]1O [PENTASTARCH]
8,> 46 µM,CC(O)(P(=O)(O)O)P(=O)(O)O [ETIDRONATE DISODIUM]
9,> 46 µM,C/C(=C(/CCO)SSC[C@@H]1CCCO1)N(C=O)Cc1cnc(C)nc1N [FURSULTIAMINE HYDROCHLORIDE]
10,> 46 µM,C[S+](=O)([O-])Nc1ccc([N+](=O)[O-])cc1Oc1ccccc1 [Nimesulide]
11,> 46 µM,CC(O)CN(CCN(CC(C)O)CC(C)O)CC(C)O (stereo unspecified) [EDETOLUM]
12,> 46 µM,O=C1OC(c2ccc(O)c([S+](=O)([O-])O)c2)(c2ccc(O)c([S+](=O)([O-])O)c2)c2c(Br)c(Br)c(Br)c(Br)c21 (stereo unspecified) [SULFOBROMOPHTHALEIN SODIUM]
13,> 46 µM,"CN(C)Cc1ccccc1 [N,N-Dimethylbenzylamine]"
14,> 46 µM,CCC(C)N1\N=C/N(C1=O)C2=CC=C(C=C2)N3CCN(CC3)C4=CC=C(OCC5COC(C[N]6C=NC=N6)(O5)C7=CC=C(Cl)C=C7Cl)C=C4 (stereo unspecified) [itraconazole]
15,> 46 µM,O.O.O=C([O-])[C@H](CC(=O)N1C[C@H]2CCCC[C@H]2C1)Cc1ccccc1.O=C([O-])[C@H](CC(=O)N1C[C@H]2CCCC[C@H]2C1)Cc1ccccc1.[Ca+2] [MITIGLINIDE CALCIUM HYDRATE]
16,> 46 µM,CCCCC(F)(F)[C@@]1(O)CC[C@H]2[C@@H](CC(=O)[C@@H]2CCCCCCC(=O)O)O1 [Lubiprostone]
17,> 46 µM,O=C(c1ccc(F)cc1)C1CCN(CCn2c(=O)[nH]c3ccccc3c2=O)CC1 [KETANSERIN]

row,IC50 of cell viability,SMILES
1,> 46 µM,CN1CCC(OC(c2ccccc2)c2ccccc2)CC1 [Diphenylpyraline hydrochloride]
2,> 46 µM,CC(=O)Nc1ccc(/C=N/NC(N)=S)cc1 [THIOACETAZONUM]
3,> 46 µM,COc1cc(C[C@H]2NCCc3cc(O)c(O)cc32)cc(OC)c1OC [Trimethoquinol]
4,> 46 µM,COc1cc(C(C)=O)ccc1OCCCN1CCC(c2noc3cc(F)ccc23)CC1 [Iloperidone]
5,> 46 µM,CC1=C(NNC(=O)C1)C2=CC=C(N\N=C(\C#N)C#N)C=C2 [SIMENDANUM]
6,> 46 µM,COc1ccc(/C=C/C(=O)O)cc1 [DIETHANOLAMINE METHOXYCINNAMATE]
7,> 46 µM,C/C=C/c1ccc(O)c(OC)c1 [Isoeugenol]
8,> 46 µM,Cc1c(I)c(=O)n(-c2ccccc2)n1C [IODOANTIPYRINE]
9,> 46 µM,CCCCC(CC)COC(=O)c1ccccc1O (stereo unspecified) [Octisalate]
10,> 46 µM,CCCCCCCCCCOCC(O)CN (stereo unspecified) [Decominol]
11,> 46 µM,CC1(C)OC[C@@H](COC(=O)CCc2ccc(OC[C@@H](O)CNCCNC(=O)N3CCOCC3)cc2)O1 [Landiolol Hydrochloride]
12,> 46 µM,CC1=C[C@@H](O)CC(C)(C)[C@@H]1/C=C/C(C)=C/C=C/C(C)=C/C=C/C=C(C)/C=C/C=C(C)/C=C/C1=C(C)C[C@H](O)CC1(C)C [LUTEIN]
13,> 46 µM,CCCc1nc2c(C)cc(-c3nc4ccccc4n3C)cc2n1Cc1ccc(-c2ccccc2C(=O)O)cc1 [TELMISARTAN]
14,> 46 µM,CC(=O)Oc1cccc2c1C(=O)c1c(OC(C)=O)cc(C(=O)O)cc1C2=O [DIACERIN]
15,> 46 µM,CC1(C)O[C@@H]2C[C@@H]3[C@@H]4C[C@@H](F)\C5=C\C(=O)CC[C@]5(C)[C@H]4[C@H](O)C[C@@]3(C)[C@]2(O1)C(=O)CO [Flurandrenolide]
16,> 46 µM,CCN1CC(CCN2CCOCC2)C(c2ccccc2)(c2ccccc2)C1=O (stereo unspecified) [DOXAPRAM HYDROCHLORIDE]
